As usually defined, the EC50 is the concentration at which the effect is half-maximal.

The subject of this test is genotype A, "Long" strain RSV. Put plainly: RSV-A assay (CPE, ATPlite readout in Hep-2 cells). Format: cell-based. The conditions noted are these: human respiratory syncytial virus, HEp-2, Hep-2 cells, genotype A "Long" strain RSV, MOI 0.1; read-out: Human RSV-A (“Long” strain) EC50. In outline:
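Hep-2 cells (8,000/well) received 2-fold serial compound dilutions in duplicate and RSV Long strain at MOI 0.1. After 5 days' incubation, cell health was read as ATP by ATPlite luminescence, with virus-only and uninfected controls defining max and minimum CPE; EC50 reported.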
Regarding `Cc1noc(C)c1-c1ccc(C(=O)NC[C@](O)(c2cc3c(c(-c4ccc(F)cc4)n2)OC[C@]3(C)C(N)=O)C(F)(F)F)cc1OC1CC1` [Example 172], the EC50 was over 200 nM.

As to `C[C@]1(C(N)=O)COc2c1cc([C@@](O)(CNC(=O)c1ccc(-c3nccs3)c(OC3CC3)c1)C(F)(F)F)nc2-c1ccc(F)cc1` [Example 173], the half-maximal effective concentration (EC50) was over 200 nM.

For `C[C@]1(C(N)=O)COc2c1cc([C@@](O)(CNC(=O)c1ccc(-c3cscn3)c(OC3CC3)c1)C(F)(F)F)nc2-c1ccc(F)cc1` [Example 174], the concentration for a half-maximal effect (EC50) is over 200 nM.

Turning to `C[C@]1(C(N)=O)COc2c1cc([C@@](O)(CNC(=O)c1ccc(-c3cncs3)c(OC3CC3)c1)C(F)(F)F)nc2-c1ccc(F)cc1` [Example 175], the EC50 is under 200 nM.

Turning to `Cc1ncc(-c2ccc(C(=O)NC[C@](O)(c3cc4c(c(-c5ccc(F)cc5)n3)OC[C@]4(C)C(N)=O)C(F)(F)F)cc2OC2CC2)s1` [Example 176], the EC50 is over 200 nM.

As for `COc1ncc(-c2ccc(C(=O)NC[C@](O)(c3cc4c(c(-c5ccc(F)cc5)n3)OC[C@]4(C)C(N)=O)C(F)(F)F)cc2OC2CC2)s1` [Example 177], the EC50 was over 200 nM.

Regarding `C[C@]1(C(N)=O)COc2c1cc([C@@](O)(CNC(=O)c1ccc(C3=CCOCC3)c(OC3CC3)c1)C(F)(F)F)nc2-c1ccc(F)cc1` [Example 178], the EC50 was over 200 nM.

Regarding `Cc1nocc1-c1ccc(C(=O)NC[C@](O)(c2cc3c(c(-c4ccc(F)cc4)n2)OC[C@]3(C)C(N)=O)C(F)(F)F)cc1OC1CC1` [Example 181], the EC50 is under 200 nM.

Regarding `COc1cc(C(=O)NC[C@](O)(c2cc3c(c(-c4ccc(F)cc4)n2)OC[C@]3(C)C(N)=O)C(F)(F)F)ccc1-c1ncc(C)o1` [Example 182], the EC50 was under 200 nM.

On to `COc1cc(C(=O)NC[C@](O)(c2cc3c(c(-c4ccc(F)cc4)n2)OC[C@]3(C)C(N)=O)C(F)(F)F)ccc1-c1cnoc1` [Example 184], for which the EC50 was under 200 nM.

For the molecule `COc1cc(C(=O)NC[C@](O)(c2cc3c(c(-c4ccc(F)cc4)n2)OC[C@]3(C)C(N)=O)C(F)(F)F)ccc1-c1cnoc1C` [Example 185], the EC50 was under 200 nM.

For `COc1cc(C(=O)NC[C@](O)(c2cc3c(c(-c4ccc(F)cc4)n2)OC[C@]3(C)C(N)=O)C(F)(F)F)ccc1-c1conc1C` [Example 186], the EC50 is under 200 nM.

Consider `COc1cc(C(=O)NC[C@](O)(c2cc3c(c(-c4ccc(F)cc4)n2)OC[C@]3(C)C(N)=O)C(F)(F)F)ccc1-c1cnco1` [Example 187], for which the EC50 is under 200 nM.

On to `COc1cc(C(=O)NC[C@](O)(c2cc3c(c(-c4ccc(F)cc4)n2)OC[C@]3(C)C(N)=O)C(F)(F)F)ccc1OCCN1CCOCC1` [Example 188], for which the EC50 is over 200 nM.

For the molecule `COc1cc(C(=O)NC[C@](O)(c2cc3c(c(-c4ccc(F)cc4)n2)OC[C@]3(C)C(N)=O)C(F)(F)F)ccc1OCCN1CCCCC1` [Example 189], the EC50 is over 200 nM.

`COc1cc(C(=O)NC[C@](O)(c2cc3c(c(-c4ccc(F)cc4)n2)OC[C@]3(C)C(N)=O)C(F)(F)F)ccc1OCCN1CCN(C)CC1` [Example 190]: the EC50 is over 200 nM.

In the case of `COc1cc(C(=O)NC[C@](O)(c2cc3c(c(-c4ccc(F)cc4)n2)OC[C@]3(C)C(N)=O)C(F)(F)F)ccc1-c1coc(C)n1` [Example 197], the EC50 was over 200 nM.

Take `C[C@]1(C(N)=O)COc2c1cc([C@@](O)(CNC(=O)c1ccc(-c3cocn3)c(OC3CC3)c1)C(F)(F)F)nc2-c1ccc(F)cc1` [Example 198]: the EC50 is under 200 nM.

Consider `COc1cc(C(=O)NC[C@](O)(c2cc3c(c(-c4ccc(F)cc4)n2)OC[C@]3(C)C(N)=O)C(F)(F)F)ccc1-c1cocn1` [Example 199], for which the concentration giving a half-maximal response (EC50) is under 200 nM.

Take `COc1cc(C(=O)NC[C@](O)(c2cc3c(c(-c4ccc(F)cc4)n2)OC[C@]3(C)C(N)=O)C(F)(F)F)ccc1-c1nnco1` [Example 200]: the EC50 is under 200 nM.

`COc1cc(C(=O)NC[C@](O)(c2cc3c(c(-c4ccc(F)cc4)n2)OC[C@]3(C)C(N)=O)C(F)(F)F)ccc1-c1nncs1` [Example 201]: the EC50 was under 200 nM.

(Values after US11505558B1, “Antiviral heterocyclic compounds” (Enanta Pharmaceuticals, Inc., priority 2019, dated 2022).)
